Results on three molecules are retold here after US20220356174A1, “PYRIDIN-2-ONE COMPOUNDS USEFUL AS SMARCA2 ANTAGONISTS” (Epizyme, Inc., priority 2018, published 2022).

The subject of one test is A549 cells. The experiment in a line: High-throughput proliferation (HTP) assay for A549 cells (CellTiter-Glo, 7 days). In kind it is cell-based. Conditions: Homo sapiens, 168 h, read-out: A549 SMARCA2 IC50. Put shortly: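 A549 cells plated at 62.5 cells/well in F12K + 10% HI-FBS onto pre-dispensed compound, grown 7 days at 37° C., 5% CO2. Viability by CellTiter-Glo luminescence after 30 min at RT; EC50/IC50 from DMSO (0%) and 10 μM Doxorubicin (100%) inhibition controls.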

For the next test, the system named is H358 cells. The experiment in a line: High-throughput proliferation (HTP) assay for H358 cells (CellTiter-Glo, 7 days). The following applies: Homo sapiens, NCI-H358, 168 h, read-out: H358 SMARCA2 IC50. Format: cell-based. Put shortly: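 Cells were plated at 1,000 cells/well in RPMI 1640 + 10% HI-FBS + 1% pen/strep on pre-dispensed compound and incubated 7 days at 37 °C, 5% CO2. Viability was read as ATP luminescence with CellTiter-Glo after 30 min at RT. DMSO served as 0% and 10 µM doxorubicin as 100% inhibition for EC50/IC50.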
A general note: Cellular ATP, detected with luciferase, serves as a proxy for viable cell number.

The target in the next test is T1, SMARCA2 (Homo sapiens, UniProt P51531).
T1 construct: FLAG tag (YKDDDDK) (C); made in house; host or cells: Sf21 insect cells (baculovirus, pFastBacI)
T1 sequence (P51531 with tags, fused parts or gaps): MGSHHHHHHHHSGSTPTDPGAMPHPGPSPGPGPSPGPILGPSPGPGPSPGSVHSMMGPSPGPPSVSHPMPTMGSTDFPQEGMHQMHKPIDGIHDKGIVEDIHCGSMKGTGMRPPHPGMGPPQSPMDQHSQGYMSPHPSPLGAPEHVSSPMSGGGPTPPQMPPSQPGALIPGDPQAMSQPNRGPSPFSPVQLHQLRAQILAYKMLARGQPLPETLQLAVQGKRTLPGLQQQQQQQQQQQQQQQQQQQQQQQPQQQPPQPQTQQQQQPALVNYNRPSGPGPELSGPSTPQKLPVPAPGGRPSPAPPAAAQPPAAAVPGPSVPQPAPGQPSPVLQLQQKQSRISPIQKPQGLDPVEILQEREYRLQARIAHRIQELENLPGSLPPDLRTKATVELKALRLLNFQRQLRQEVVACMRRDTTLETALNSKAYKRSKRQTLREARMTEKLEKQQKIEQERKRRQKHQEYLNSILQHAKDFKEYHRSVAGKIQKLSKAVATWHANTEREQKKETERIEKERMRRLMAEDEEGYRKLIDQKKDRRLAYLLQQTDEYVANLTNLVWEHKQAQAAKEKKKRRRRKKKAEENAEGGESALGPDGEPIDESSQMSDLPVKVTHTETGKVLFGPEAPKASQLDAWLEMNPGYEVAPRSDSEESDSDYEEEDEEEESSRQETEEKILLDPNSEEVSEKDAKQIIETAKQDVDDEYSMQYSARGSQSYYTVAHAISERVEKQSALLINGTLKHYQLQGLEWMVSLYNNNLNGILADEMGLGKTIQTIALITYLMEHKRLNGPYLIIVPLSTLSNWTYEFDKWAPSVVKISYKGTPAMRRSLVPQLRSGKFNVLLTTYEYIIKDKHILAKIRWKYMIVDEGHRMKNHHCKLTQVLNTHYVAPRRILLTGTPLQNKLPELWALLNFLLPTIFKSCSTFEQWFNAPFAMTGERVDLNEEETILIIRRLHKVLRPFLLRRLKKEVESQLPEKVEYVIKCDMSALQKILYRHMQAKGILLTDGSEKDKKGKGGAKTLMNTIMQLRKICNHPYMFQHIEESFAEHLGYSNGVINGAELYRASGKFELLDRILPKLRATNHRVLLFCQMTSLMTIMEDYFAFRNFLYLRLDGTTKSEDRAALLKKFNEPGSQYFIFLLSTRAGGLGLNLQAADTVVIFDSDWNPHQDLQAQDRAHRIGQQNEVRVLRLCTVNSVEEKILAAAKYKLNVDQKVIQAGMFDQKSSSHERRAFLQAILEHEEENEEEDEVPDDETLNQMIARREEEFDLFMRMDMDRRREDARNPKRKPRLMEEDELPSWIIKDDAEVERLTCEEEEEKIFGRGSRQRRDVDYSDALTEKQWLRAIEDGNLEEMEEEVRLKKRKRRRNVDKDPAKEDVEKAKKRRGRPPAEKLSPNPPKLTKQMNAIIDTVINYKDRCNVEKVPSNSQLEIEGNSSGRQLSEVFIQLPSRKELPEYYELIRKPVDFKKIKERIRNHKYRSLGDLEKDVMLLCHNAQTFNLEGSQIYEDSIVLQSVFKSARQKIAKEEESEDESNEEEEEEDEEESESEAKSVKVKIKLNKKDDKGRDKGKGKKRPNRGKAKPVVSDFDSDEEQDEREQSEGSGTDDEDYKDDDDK
Nature of the test: SMARCA2 FRET nucleosome remodeling activity assay. In kind it is biochemical.

Where only a bound is given, the exact number is not on record here.

As for `N#Cc1cc(C(=O)Nc2cc(F)c(=O)n(CC(F)F)c2)sc1C(F)(F)F` [Compound 82c, 4-cyano-N-[1-(2,2-difluoroethyl)-5-fluoro-6-oxopyridin-3-yl]-5-(trifluoromethyl)thiophene-2-carboxamide], the results for the IC50 with A549 cells and in the test on H358 cells were 589 nM and > 10000 nM, respectively.
For `N#Cc1sc(C(=O)Nc2cc(F)c(=O)n(CCF)c2)cc1Cl` [Compound 139], the IC50 came to 868 nM in the test on A549 cells and 25.3 nM against SMARCA2.
Take `O=C(Nc1cc(F)c(=O)n(CC(F)F)c1)c1cc(Cl)c(C(F)(F)F)s1` [Compound 298, 4-Chloro-N-(1-(2,2-difluoroethyl)-5-fluoro-6-oxo-1,6-dihydropyridin-3-yl)-5-(trifluoromethyl)thiophene-2-carboxamide]: the results for the IC50 in the test with A549 cells, in the test on H358 cells and on SMARCA2 were 682 nM, > 10000 nM and 47.1 nM, respectively.

The IC50 is the concentration that gives 50% inhibition.
